Measured values from patent US7678809B2 (priority 1999, dated 2010).

Key:
Assay type in all cases: biochemical
[1] = target: T1, human opioid receptor-like receptor (ORL-1) (Homo sapiens, UniProt P41146); settings: read-out: Nociceptin Affinity calc Ki
T1 construct: host or cells: HEK-293

Mu opioid receptor = Mu opioid receptor (Homo sapiens, UniProt P35372); settings: read-out: calc Ki (nM) μ
kappa opioid receptor = kappa opioid receptor (Homo sapiens, UniProt P41145); settings: read-out: calc Ki (nM) k
delta opioid receptor = delta opioid receptor (Homo sapiens, UniProt P41143); settings: read-out: calc Ki (nM) δ2
Chain of delta opioid receptor (P41143 whole entry): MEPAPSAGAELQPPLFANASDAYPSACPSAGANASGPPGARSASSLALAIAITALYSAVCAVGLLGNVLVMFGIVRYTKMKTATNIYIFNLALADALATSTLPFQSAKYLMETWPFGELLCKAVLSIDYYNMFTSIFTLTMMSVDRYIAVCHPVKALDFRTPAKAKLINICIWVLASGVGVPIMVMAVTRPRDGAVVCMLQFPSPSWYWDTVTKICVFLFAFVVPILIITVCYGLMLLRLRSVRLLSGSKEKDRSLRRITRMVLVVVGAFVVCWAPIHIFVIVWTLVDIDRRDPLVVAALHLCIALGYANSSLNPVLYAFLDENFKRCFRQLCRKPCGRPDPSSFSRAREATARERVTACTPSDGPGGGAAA

T1 sequence (P41146 whole entry): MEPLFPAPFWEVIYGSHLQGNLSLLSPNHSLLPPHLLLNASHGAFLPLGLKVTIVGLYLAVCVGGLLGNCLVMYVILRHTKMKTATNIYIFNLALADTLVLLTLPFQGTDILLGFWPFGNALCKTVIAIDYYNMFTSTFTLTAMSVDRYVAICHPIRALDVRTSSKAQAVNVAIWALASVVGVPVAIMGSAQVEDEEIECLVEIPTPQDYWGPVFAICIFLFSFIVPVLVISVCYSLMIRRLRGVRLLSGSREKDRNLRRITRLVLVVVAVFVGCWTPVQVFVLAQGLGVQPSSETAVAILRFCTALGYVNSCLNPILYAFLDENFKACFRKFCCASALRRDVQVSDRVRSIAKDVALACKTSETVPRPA
Chain of kappa opioid receptor (P41145 whole entry): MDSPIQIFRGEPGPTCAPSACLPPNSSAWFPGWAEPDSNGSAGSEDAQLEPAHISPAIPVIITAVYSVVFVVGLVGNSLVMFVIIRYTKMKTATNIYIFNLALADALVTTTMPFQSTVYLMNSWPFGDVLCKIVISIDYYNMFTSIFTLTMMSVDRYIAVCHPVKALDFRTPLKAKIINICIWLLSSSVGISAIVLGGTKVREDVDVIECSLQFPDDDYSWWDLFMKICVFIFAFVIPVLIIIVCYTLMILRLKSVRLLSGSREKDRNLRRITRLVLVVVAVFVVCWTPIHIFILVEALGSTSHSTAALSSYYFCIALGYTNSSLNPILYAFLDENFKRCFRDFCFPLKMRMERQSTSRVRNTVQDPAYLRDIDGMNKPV
Chain of Mu opioid receptor (P35372 whole entry): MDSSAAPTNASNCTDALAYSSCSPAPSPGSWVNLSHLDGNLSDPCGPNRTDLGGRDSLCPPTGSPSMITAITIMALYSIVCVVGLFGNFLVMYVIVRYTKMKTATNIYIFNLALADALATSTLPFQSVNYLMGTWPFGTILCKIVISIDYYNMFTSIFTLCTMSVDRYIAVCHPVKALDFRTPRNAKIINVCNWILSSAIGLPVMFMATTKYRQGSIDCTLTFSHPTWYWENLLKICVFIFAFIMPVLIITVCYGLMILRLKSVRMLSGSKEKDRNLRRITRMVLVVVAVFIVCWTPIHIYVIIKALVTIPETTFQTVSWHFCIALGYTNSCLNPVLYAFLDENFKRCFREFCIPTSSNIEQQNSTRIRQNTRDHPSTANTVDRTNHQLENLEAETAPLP

## 1-[4-(4-propyl-1,2-cyclohexene)-4-piperidinyl]-1,3-dihydro-2H-1,3-benzamidazol-2-one
[1]
  Ki: 469 nM
Mu opioid receptor
  Ki: 265 nM
Kappa opioid receptor
  Ki: 1500 nM
Delta opioid receptor
  Ki: 1220 nM

## 1-[4-(4-propylcyclohexane)-4-piperidinyl]-3-[1-oxo-ethyl]-1,3-dihydro-2H-1,3-benzamidazol-2-one
[1]
  Ki: 464 nM
Mu opioid receptor
  Ki: 23.2 nM
Kappa opioid receptor
  Ki: 1600 nM
Delta opioid receptor
  Ki: > 10000 nM

## O=c1[nH]c2ccccc2n1C1CCN(CCCC(c2ccc(F)cc2)c2ccc(F)cc2)CC1 [1-[4-(4,4-difluorophenylbutyl)-4-piperidinyl]-1,3-dihydro-2H-1,3-benzamidazol-2-one]
[1]
  Ki: 420 nM
